The values below come from patent US8993595B2, “Macrocyclic serine protease inhibitors” (priority 2009, dated 2015).

The structures appear in SMILES notation.

One series addresses T1, human CYP450 2D6 (Homo sapiens, UniProt P10635).
T1 construct: purchased BD Bioscience
The series is described as follows: CYP450 inhibition assay, 2D6. In kind it is in vitro ADME. Here is the method:
Compound 52 was incubated with human CYP450 cDNA-expressed isoenzymes according to the protocol (BD Bioscience). For CYP2C9, a luminogenic substrate was used with the P450-Glo™ kit. In addition, the effect of the compound on CYP2C9-mediated diclofenac metabolism was measured by LC-UV. The potential inhibitory effect of the compound on human UGT1A1 was examined using human liver microsomes and bilirubin as substrate. The metabolites (mono- and di-glucuronidated bilirubin) were measured by LC-UV.

The subject of another series is CD-1 mice. The format is in vivo. To be noted: oral doses up to 2,000 mg/kg. Here is the method: The potential for compound 52 to induce mutations in a bacterial system (S. typhimurium and E. coli—at concentrations up to 5,000 μg/plate), to induce chromosomal aberrations in cultures of human peripheral blood lymphocytes (at concentrations up to 84 μg/mL), and to induce clastogenic and/or aneugenic activity in CD-1 mice (at oral doses up to 2,000 mg/kg) was evaluated. The two in vitro studies were performed with and without the addition of a mammalian metabolic activation system (rat liver S9 subcellular fraction).

For series [1], the target named is T2, HCV NS3-4A Protease Genotype 1b (Hepatitis C virus genotype 1b, UniProt Q9WMX2).
T2 construct: recombinant HCV NS3-4A proteases
T2 sequence (Q9WMX2 1658-1711): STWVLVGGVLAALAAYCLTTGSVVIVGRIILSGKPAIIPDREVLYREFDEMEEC
T2 sequence (Q9WMX2 1027-1657): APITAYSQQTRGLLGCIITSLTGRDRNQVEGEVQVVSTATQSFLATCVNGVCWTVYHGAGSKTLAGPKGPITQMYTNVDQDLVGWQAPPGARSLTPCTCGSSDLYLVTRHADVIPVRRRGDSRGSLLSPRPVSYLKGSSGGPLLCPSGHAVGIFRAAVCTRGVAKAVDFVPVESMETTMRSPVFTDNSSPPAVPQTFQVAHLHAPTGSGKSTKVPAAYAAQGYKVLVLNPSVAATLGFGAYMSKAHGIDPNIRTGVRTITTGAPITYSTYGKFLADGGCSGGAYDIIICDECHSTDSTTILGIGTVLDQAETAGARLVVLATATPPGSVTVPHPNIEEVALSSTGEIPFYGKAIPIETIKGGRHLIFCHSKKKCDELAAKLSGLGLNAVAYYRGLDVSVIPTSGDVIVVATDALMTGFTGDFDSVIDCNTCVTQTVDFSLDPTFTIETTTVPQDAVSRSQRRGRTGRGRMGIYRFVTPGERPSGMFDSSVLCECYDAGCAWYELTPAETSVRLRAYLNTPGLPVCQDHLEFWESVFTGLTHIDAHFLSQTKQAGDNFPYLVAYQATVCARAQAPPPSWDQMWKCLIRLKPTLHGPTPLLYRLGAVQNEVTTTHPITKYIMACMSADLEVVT
The series is described as follows: HCV protease assay, recombinant NS3-4A genotype 1b. As to conditions: mean ± SD, 3 experiments. In kind it is biochemical. On the procedure: (§1) The compounds were tested at a variety of concentrations in assay buffer containing a final DMSO concentration of 5%. Reactions were allowed to proceed for 60 min at room temperature and fluorescence measurements were recorded with a Tecan Infinity Spectrofluorimeter. The IC50 values were determined from the percent inhibition versus concentration data using a sigmoidal non-linear regression analysis based on four parameters with Tecan Magellan software.
(§2) Compound 52 was tested against genotypes 1a, 1b, 2a, 3a, and 4a of recombinant HCV NS3-4A proteases, along with other cellular proteases.

The nature of series [2]: MTS Cytotoxicity Assay in HPC cells. As to conditions: human; HPC cells (2a virus line). In kind it is cell-based. On the procedure:
HPC cells were infected with JFH-1 (genotype 2a) and treated with the compound for 4 days (virus inoculum was removed after 16 hrs). Remaining virus was measured by an anti-HCV core ELISA. Compound cytotoxicity was also measured in parallel using a colorimetric proliferation assay as described in Example 5.
The cytotoxicity assay measures the viability of cells after treatment with a test compound for 5 days. The assay readout is the bioreduction of the yellow MTS tetrazolium compound to a purple formazan product. This conversion is mediated by NADPH or NADH and is directly proportional to the number of live cells in a culture.
Ninety-six-well Corning Costar plates were seeded with HPC cells at a density of 3.0×10^3 cells per well in 50 μL of Huh-7 media. Compound stock solutions were made up freshly in Huh-7 media as 2× stocks. Seven additional 3-fold drug dilutions were prepared from the 2× stocks in Huh-7 media for a total of 8 dilutions.
At least 4 hours after HPC cells were seeded, 50 μL of each drug dilution was added to the cultures. […]
After 5 days of treatment, the CellTiter 96® Aqueous One Solution cell proliferation assay was performed by adding 20 μL of MTS solution to each well. […] Plates were read at A490 nm in a Victor^3 V 1420 multilabel counter (Perkin Elmer) and CC50 concentrations were determined using Microsoft Excel and XLfit 4.1 software. […]

In series [3] the test system is H1a-luc cell line (genotype 1a replicon, unselected). The series is described as follows: Extent of resistance after selection, H1a-luc. The format is cell-based, HCV. As to conditions: selecting conc. 0 nM. On the procedure:
(§3) Replicon cells (genotype 1a or 1b) were treated with various concentrations of compound 52 in the presence of G418. Treatment-emergent genotypic changes were identified by population sequencing of NS3 (both protease and helicase regions). The activity of compound 52 and other compounds was evaluated by NS5A western blot after selection or luciferase assay during and after selection.

Series [4] deals with ZlucB cell line (genotype 1b replicon selected with 25 nM compound 52, D168V). The series is described as follows: Extent of resistance after selection, luciferase assay, ZlucB. The format is cell-based, HCV. As to conditions: selecting conc. 25 nM, EC50 resistant / EC50 wild-type. On the procedure: as §3
Eight drug-resistance replicon cell lines were created by long-term culture of genotype 1b replicon cells with 10 or 25 nM of compound 52. NS3 (AAs 1-631) was sequenced at each passage.

For series [5], the target named is T3, HCV NS3-4A Protease Genotype 3a (Hepatitis C virus genotype 3a, UniProt Q81258).
T3 construct: recombinant HCV NS3-4A proteases
T3 sequence (Q81258 1664-1717): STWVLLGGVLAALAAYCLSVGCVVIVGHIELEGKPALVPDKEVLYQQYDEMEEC
T3 sequence (Q81258 1033-1663): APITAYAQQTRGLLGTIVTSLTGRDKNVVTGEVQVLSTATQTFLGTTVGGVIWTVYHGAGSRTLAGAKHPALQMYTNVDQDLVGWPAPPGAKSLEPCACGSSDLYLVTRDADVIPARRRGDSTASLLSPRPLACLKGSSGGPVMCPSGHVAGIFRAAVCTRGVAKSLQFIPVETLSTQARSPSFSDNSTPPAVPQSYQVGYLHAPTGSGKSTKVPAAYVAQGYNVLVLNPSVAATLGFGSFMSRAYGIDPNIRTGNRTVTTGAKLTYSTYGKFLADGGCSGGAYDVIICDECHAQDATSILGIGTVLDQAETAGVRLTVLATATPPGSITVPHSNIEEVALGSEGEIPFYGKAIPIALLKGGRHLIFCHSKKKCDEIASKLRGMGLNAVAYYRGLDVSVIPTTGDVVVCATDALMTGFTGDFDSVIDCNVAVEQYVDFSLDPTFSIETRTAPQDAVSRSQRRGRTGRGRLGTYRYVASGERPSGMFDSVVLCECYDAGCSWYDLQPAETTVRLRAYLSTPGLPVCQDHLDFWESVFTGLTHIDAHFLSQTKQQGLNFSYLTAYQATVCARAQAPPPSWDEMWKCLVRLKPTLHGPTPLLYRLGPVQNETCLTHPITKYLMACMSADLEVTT
Description: HCV protease assay, recombinant NS3-4A genotype 3a. The format is biochemical. As to conditions: mean ± SD, 3 experiments. Here is the method: as §1, §2

The subject of series [6] is A-1a cell line (genotype 1a replicon selected with 10 nM, D168A). The series is described as follows: Extent of resistance after selection, A-1a. In kind it is cell-based, HCV. As to conditions: selecting conc. 10 nM. On the procedure: as §3

T1 sequence (P10635 whole entry): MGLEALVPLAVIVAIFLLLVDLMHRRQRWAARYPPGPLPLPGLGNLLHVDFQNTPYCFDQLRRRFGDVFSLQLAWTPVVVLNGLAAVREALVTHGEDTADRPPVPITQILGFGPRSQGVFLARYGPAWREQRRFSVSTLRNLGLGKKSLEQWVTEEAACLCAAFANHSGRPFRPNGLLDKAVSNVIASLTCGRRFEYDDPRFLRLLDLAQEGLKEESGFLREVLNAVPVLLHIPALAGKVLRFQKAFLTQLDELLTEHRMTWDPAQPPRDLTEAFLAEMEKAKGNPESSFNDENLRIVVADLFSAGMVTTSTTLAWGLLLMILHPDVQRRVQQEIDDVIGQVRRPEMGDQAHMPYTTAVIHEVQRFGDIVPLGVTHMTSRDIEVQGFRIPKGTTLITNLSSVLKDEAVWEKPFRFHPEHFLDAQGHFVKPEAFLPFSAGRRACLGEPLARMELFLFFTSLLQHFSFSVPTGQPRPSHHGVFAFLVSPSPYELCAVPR

On to `COc1ccc2c(O[C@H]3CCN4C(=O)N(C)CCCC/C=C\[C@@H]5C[C@@]5(C(=O)NS(=O)(=O)C5(C)CC5)NC(=O)[C@@H]4C3)cc(-c3nc(C(F)(F)F)cs3)nc2c1C` [Compound 52, 1-methyl-cyclopropanesulfonic acid{(Z)-(1S,4R,6S,18S)-18-[7-methoxy-8-methyl-2-(4-trifluoromethyl-thiazol-2-yl)-quinolin-4-yloxy]-13-methyl-2,14-dioxo-3,13,15-triaza-tricyclo[13.4.0.0*4,6*]nonadec-7-ene-4-carbonyl}amide], for which the 50% inhibitory concentration (IC50) on human CYP450 2D6 was at least 10000 nM; in series [1] it was 1.2 ± 0.1 nM; in series [5] it was 23 ± 1.9 nM. Moreover, the “genotoxicity, mouse micronucleus test” value in the series on CD-1 mice is recorded as “no genotoxicity”. Besides, the CC50 at 5 days in series [2] amounted to 11300 ± 100 nM. Moreover, the figures for the Fold-Change in series [3], in series [4] and in series [6] were 1, 1037 ± 144 and 589 ± 442, respectively.

One may read the IC50 as the point on the concentration scale where inhibition reaches its midpoint. As usually defined, the CC50 is the concentration that lowers cell viability or growth by half.
